Key:
[1] = system: NCI-H716 cells; experiment: GLP-1 secretion by NCI-H716 cells (Examples 2-8); assay type: cell-based, human; conditions: NCI-H716 cells, inhibitor 1 hour before oleoyl-LPI (PD98059 50 μM; H89 10 μM)
Experimental: NCI-H716 cells were maintained in 75 cm^2 tissue culture flasks (Corning) in RPMI 1640 media containing 2.0 mM L-glutamine, 1.5 g/L sodium bicarbonate, 10 mM HEPES buffer, 1.0 mM sodium pyruvate, and 4.5 g/L glucose and supplemented with 10% FBS at a 37° C. and 5% CO2. When plating for experiment, cell adhesion and endocrine differentiation were initiated by growing cells in dishes coated with growth factor reduced Matrigel diluted at the ratio of 1:2 (Becton Dickinson, Bedford, MA) in high-glucose DMEM, 10% FBS, 2 mM glutamine, 100 IU/ml penicillin, and 100 μg/ml streptomycin as described previously by De Bruine, a P., Dinjens, W. N., van der Linden, E. P., Pijls, M. M., Moerkerk, P. T., & Bosman, F. T. (1993) The American Journal of Pathology, Vol 142(3), pp 773-782, the disclosure of which is incorporated herein in its entirety by reference.
(§1) Approximately 80,000 Glutag cells were plated in poly-L-lysine-coated 24-well culture plates and grown to about 80% confluence. NCI-H716 cells were seeded on growth factor reduced Matrigel™ (Becton Dickinson, Bedford, MA) in DMEM medium, supplemented with 10% FBS the day before the experiment. For NCI-H716 cells, approximately 25,000 cells were needed for this secretion experiment in order to have good stimulation with lower basal GLP-1 secretion. In brief, Glutag and NCI-H716 cells were washed twice and then incubated for 2 h with FBS-free DMEM containing 1% (M:C) alone (negative control), 10 μM forskolin as positive control (Sigma-Aldrich), or with different concentrations of Oleoyl-LPI. M:C was used as a solvent to prepare stock solutions of fatty acid derivatives and inhibitors. For secretion experiments, medium and cells were collected separately.
(§2) In separate studies, GLUTag or NCI-H716 cells were pre-treated for 1 hour with medium alone (1% DMSO, negative control), PD98059 (50 μM; Sigma Chemical Co.), H89 (10 μM; Santa Cruz) followed by treatment with oleoyl-LPI (20 μM), OEA (10 μM), AR231453(1 μM), PMA (10 μM) or forskolin (10 μM, positive control) in the presence of inhibitors, as appropriate, for about 2 h. Medium GLP-1 secretion was calculated as total GLP-1 content of medium normalised for the basal secretion of the control.
(§3) In order to investigate the role of different LPI species in enteroendocrine cells, murine (Glutag) and human (NCI-H716) L-cells were stimulated with the following different species of LPI: Arachidonyl-LPI, Stearoyl-LPI, Heptadecenoyl-LPI and oleoyl-LPI, as well as with OEA and LPC. Experiments were performed in duplicate, n=4 and the level of total GLP-1 was measured by ELISA.

[2] = system: ERK; experiment: ERK phosphorylation by Western blot, NCI-H716 cells; assay type: cell-based, human; conditions: pre-treatment 1 hour, 50 μM, then oleoyl-LPI
Experimental: When cell cultures reached 80-90%, media were removed and cells were washed twice with 1×PBS. The cells were lysed in 150 μl (for one well of a 6 well plate) of Triton X-100 lysis buffer, containing phosphatase inhibitor cocktail (1:1000) (Sigma Aldrich, UK) and protease inhibitor (1:1000, Sigma Aldrich, UK). Cells were detached with scrapers and lysate were collected and centrifuged at 10,000 rpm, 4° C. for 5 minutes. The supernatant was then transferred to a 1.5 ml microcentrifuge tube and used for protein quantification. Cell lysates were stored at −20° C. for longer storage. All lysates were prepared on ice.
Non-specific antibody binding was prevented by incubating the nitrocellulose membrane in 5% milk in PBS-0.05% Tween-20 (v/v) for 30 minutes on a rotating plate. The membrane was then washed in PBS-0.05% Tween-20 (v/v) and then incubated with the primary antibody diluted in PBS-0.05% Tween-20 (v/v) on a rotating plate overnight at 4° C. After 24 hours, the membrane was washed 5× for 5 minutes with PBS-0.05% Tween-20 (v/v), and then incubated on a rotating plate with the appropriate secondary antibody for 1 hour at room temperature. […]

[3] = system: Glutag cells; experiment: GLP-1 secretion by Glutag cells; assay type: cell-based, murine; conditions: Glutag cells, inhibitor 1 hour before oleoyl-LPI (PD98059 50 μM; H89 10 μM)
Experimental: Glutag cells were maintained in low glucose DMEM (Sigma) (1 g/L) containing 2.0 mM L-glutamine, 1.0 mM sodium pyruvate and supplemented with 10% FBS, 100 IU/ml penicillin, 100 μg/ml streptomycin at a 37° C. and 5% CO2.
as §1, §2, §3

[4] = system: GPR55 mRNA; experiment: siRNA knockdown of GPR55 mRNA by real-time RT-PCR; assay type: cell-based, murine; conditions: Glutag cells, 48 hours post transfection
Experimental: Transfection was performed according to the “Lipofectamine transfection protocol” (Invitrogen, Life Technologies) and optimised for a 6-well plate format. Briefly, cells were plated in complete growth medium at a density of 3.0×10^5/well in a 6-well plate and incubated at 37° C./5% CO2. Twenty-four hours later, when cells were ˜60% confluent, transfection was performed in RNAse-free conditions. 300 nM of total siRNA pool and 4.0 μl of Lipofectamine transfection reagent were diluted in separate tubes in Optimem and incubated for 5 min at room temperature (RT). The contents of the tubes were carefully mixed and incubated again for 20 min at RT. Cells were washed twice with sterile 1×PBS and incubated in 300 μL of Optimem. After 20 min, transfection complexes were added to the cells drop wise. Cells were then incubated for 4 hours before adding Optimem containing 30% serum without antibiotic. Cells were further incubated at 37° C./5% CO2 for 48 h before secretion experiment. […]
Transfection efficiency was quantified by real-time RT-PCR. […]
RT-qPCR was performed according to manufacturer's instructions (Cat. No. K0222, Fermentas). […] The relative changes in gene expression quantification were calculated using the relative ddCT analysis mode of the ABI 7500 Real-Time PCR system software.

Row | Molecule | oleoyl-LPI induced GLP-1 secretion with inhibitor pre-treatment [1] | ERK phosphorylation [2] | oleoyl-LPI induced GLP-1 secretion with inhibitor pre-treatment [3] | knockdown of GPR55 mRNA [4] [%]
1 | COc1cccc(-c2cc(=O)c3ccccc3o2)c1N [PD98059] | significantly reduced oleoyl-LPI induced GLP-1 secretion | substantially reduced ERK phosphorylation | significantly reduced oleoyl-LPI induced GLP-1 secretion | –
2 | GPR55 siRNA: murine siRNA against GPR55, ACAGGGAAGUGGAGAGAUA (SEQ ID NO: 3) (listed as RNA, chemistry not given here; listed as Mus musculus) | – | – | – | 80

Reference: patent publication US12503426B2, “Synthetic derivatives of oleoyl-lysophosphatidylinositol (oleoyl-LPI) and uses thereof” (LIPOVEXA SRL, priority 2017, dated 2025)
